Measurements from ChEMBL document CHEMBL4130341 (Medchemcomm, 2016).
Calls of active or inactive are those of the source. The calls are words filed in the database; no cut-off is given here.

Experiments:
[1] = target: T1, Nuclear factor erythroid 2-related factor 2 (Mus musculus) (UniProt Q60795); assay: Induction of Nrf2 nuclear translocation in mouse Hepa1c1c7 cells at 20 uM after 6 hrs by DAPI/Hoechst 33258 staining-based immunofluorescence method; type: cell-based
T1 sequence (whole entry): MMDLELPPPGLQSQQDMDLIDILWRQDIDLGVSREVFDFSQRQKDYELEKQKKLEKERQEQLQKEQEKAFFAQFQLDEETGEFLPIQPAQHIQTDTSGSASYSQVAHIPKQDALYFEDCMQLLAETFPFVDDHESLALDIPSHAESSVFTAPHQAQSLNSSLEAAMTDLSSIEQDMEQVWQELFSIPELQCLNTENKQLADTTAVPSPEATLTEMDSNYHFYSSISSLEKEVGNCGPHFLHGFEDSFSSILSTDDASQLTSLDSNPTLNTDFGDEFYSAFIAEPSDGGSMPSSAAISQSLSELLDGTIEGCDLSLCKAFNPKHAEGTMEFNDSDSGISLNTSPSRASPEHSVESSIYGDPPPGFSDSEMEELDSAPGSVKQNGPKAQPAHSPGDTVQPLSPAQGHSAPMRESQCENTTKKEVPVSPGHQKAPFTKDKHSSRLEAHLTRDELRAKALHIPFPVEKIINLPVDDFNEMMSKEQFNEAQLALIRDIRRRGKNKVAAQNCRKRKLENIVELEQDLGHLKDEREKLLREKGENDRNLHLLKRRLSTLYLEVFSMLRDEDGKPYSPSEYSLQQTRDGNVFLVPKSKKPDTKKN

MCF7 = assay: Cytotoxicity against human MCF7 cells assessed as cell survival at 100 uM after 24 hrs by SRB assay relative to control; type: functional
Rattus norvegicus [2] = assay: In vivo induction of GST activity in Wistar rat liver cytosolic fraction at 15 mg/kg, po qd administered over 2 weeks by measuring GS-CDNB adduct formation using CDNB/GSH as substrate measured for 1 min relative to control; type: functional
Salmonella typhimurium = assay: Mutagenicity in Salmonella typhimurium TA98 in presence of mouse liver S9 fraction by Ames test; type: toxicity, organism-based; conditions: salmonella enterica subsp. enterica serovar typhimurium
Rattus norvegicus [3] = assay: Toxicity in Wistar rat assessed as effect on body weight at 15 mg/kg, po qd administered over 2 weeks; type: organism-based; conditions: in vivo, 336 h
HK-2 = assay: Genotoxicity in human HK2 cells assessed as induction of DNA strand breakage at 20 uM after 6 hrs by DAPI staining based alkaline comet assay; type: toxicity, cell-based; conditions: hk-2, 6 h
Rattus norvegicus [4] = assay: In vivo induction of quinone reductase activity in Wistar rat mammary gland cytosolic fraction at 15 mg/kg, po qd administered over 2 weeks using 2,6-DCIP as substrate relative to control; type: functional
TK-10 = assay: Cytotoxicity against human TK10 cells assessed as cell survival after 24 hrs by SRB assay; type: functional, cell-based; conditions: TK-10, 24 h
Rattus norvegicus [5] = assay: In vivo induction of GST activity in Wistar rat colon cytosolic fraction at 15 mg/kg, po qd administered over 2 weeks by measuring GS-CDNB adduct formation using CDNB/GSH as substrate measured for 1 min relative to control; type: functional
[6] = target: T1, Nuclear factor erythroid 2-related factor 2 (Mus musculus); assay: Activation of Nrf2 in wild type mouse Hepa1c1c7 cells cytosolic fraction assessed as induction of quinone reductase activity at 10 uM using 2,6-DCIP as substrate in presence of NADH incubated for 48 hrs measured for 1 min relative to control
[7] = target: T1, Nuclear factor erythroid 2-related factor 2 (Mus musculus); assay: Activation of Nrf2 in wild type mouse Hepa1c1c7 cells cytosolic fraction assessed as induction of quinone reductase activity using 2,6-DCIP as substrate in presence of NADH incubated for 48 hrs measured for 1 min
Rattus norvegicus [8] = assay: In vivo induction of quinone reductase activity in Wistar rat colon cytosolic fraction at 15 mg/kg, po qd administered over 2 weeks using 2,6-DCIP as substrate relative to control; type: functional
Rattus norvegicus [9] = assay: Toxicity in Wistar rat assessed as effect on behavior at 15 mg/kg, po qd administered over 2 weeks; type: organism-based; conditions: in vivo, 336 h
[10] = target: T1, Nuclear factor erythroid 2-related factor 2 (Mus musculus); assay: Ratio of CD for activation of Nrf2 in mutant mouse BpRc1 cells cytosolic fraction to CD for activation of Nrf2 in wild type mouse Hepa1c1c7 cells cytosolic fraction; type: cell-based
[11] = target: T1, Nuclear factor erythroid 2-related factor 2 (Mus musculus); assay: Activation of Nrf2 in mutant mouse BpRc1 cells cytosolic fraction assessed as induction of quinone reductase activity using 2,6-DCIP as substrate in presence of NADH incubated for 48 hrs measured for 1 min; type: cell-based
[12] = Cytotoxicity against wild type mouse Hepa1c1c7 cells after 48 hrs by SRB assay; type: functional, cell-based; conditions: Hepa-1c1c7, 48 h
Rattus norvegicus [13] = assay: In vivo induction of quinone reductase activity in Wistar rat liver cytosolic fraction at 15 mg/kg, po qd administered over 2 weeks using 2,6-DCIP as substrate relative to control; type: functional
Rattus norvegicus [14] = assay: In vivo induction of GST activity in Wistar rat mammary gland cytosolic fraction at 15 mg/kg, po qd administered over 2 weeks by measuring GS-CDNB adduct formation using CDNB/GSH as substrate measured for 1 min relative to control; type: functional
[15] = Ratio of IC50 for cytotoxicity against wild type mouse Hepa1c1c7 cells to CD for activation of Nrf2 in wild type mouse Hepa1c1c7 cells cytosolic fraction
[16] = Ratio of IC50 for cytotoxicity against mutant mouse BpRc1 cells to CD for activation of Nrf2 in mutant mouse BpRc1 cells cytosolic fraction
[17] = target: T1, Nuclear factor erythroid 2-related factor 2 (Mus musculus); assay: Activation of Nrf2 in mutant mouse BpRc1 cells cytosolic fraction assessed as induction of quinone reductase activity at 10 uM using 2,6-DCIP as substrate in presence of NADH incubated for 48 hrs measured for 1 min relative to control; type: cell-based
[18] = Cytotoxicity against mutant mouse BpRc1 cells after 48 hrs by SRB assay; type: functional, cell-based; conditions: BPrc1, 48 h
[19] = target: T1, Nuclear factor erythroid 2-related factor 2 (Mus musculus); assay: Ratio of activation of wild type Nrf2 in mouse Hepa1c1c7 cells cytosolic fraction to activation of Nrf2 in mutant mouse BpRc1 cells cytosolic fraction; type: cell-based
Rattus norvegicus [20] = assay: In vivo induction of CYP450 activity in Wistar rat mammary gland microsomal fraction at 15 mg/kg, po qd administered over 2 weeks by measuring EROD activity using 7-ethoxyresorufine as substrate measured for 5 mins; type: ADME, organism-based; conditions: microsomes
Rattus norvegicus [21] = assay: In vivo induction of CYP450 activity in Wistar rat liver microsomal fraction at 15 mg/kg, po qd administered over 2 weeks by measuring EROD activity using 7-ethoxyresorufine as substrate measured for 5 mins; type: ADME, organism-based; conditions: microsomes
Rattus norvegicus [22] = assay: In vivo induction of CYP450 activity in Wistar rat colon microsomal fraction at 15 mg/kg, po qd administered over 2 weeks by measuring EROD activity using 7-ethoxyresorufine as substrate measured for 5 mins; type: ADME, organism-based; conditions: microsomes

O=C(/C=C/c1cccnc1Br)c1ccccc1O
Activity [1]: Active | Activity (MCF7): Active | Activity (Rattus norvegicus [2]): 29% | Activity (Salmonella typhimurium): Non-Toxic | Activity (Rattus norvegicus [3]): Non-Toxic | Activity (HK-2): Non-Toxic | Activity (Rattus norvegicus [4]): 13% | IC50 (TK-10): 26 µM | Activity (Rattus norvegicus [5]): 16% | fold change (FC) [6]: 1.57 | CD [7]: 14 µM | Activity (Rattus norvegicus [8]): 11% | Activity (Rattus norvegicus [9]): Non-Toxic | Ratio [10]: 0.71 | CD [11]: 10 µM | IC50 [12]: 39 µM | Activity (Rattus norvegicus [13]): 25% | Activity (Rattus norvegicus [14]): 10% | Ratio [15]: 2.8 | Ratio [16]: >20 | fold change (FC) [17]: 1.98 | IC50 [18]: > 200 µM | Ratio [19]: 0.8 | Activity (Rattus norvegicus [20]): Non-Toxic | Activity (Rattus norvegicus [21]): Non-Toxic | Activity (Rattus norvegicus [22]): Non-Toxic
